Results reported in patent US6653089B2, “Differential treatment of selected parts of a single cell with different fluid components” (President and Fellows of Harvard College, priority 2000, dated 2003).

How the values were obtained:
[1] = test system: BCE cells (actin filaments); assay: Partial treatment of single BCE cells with a membrane-permeable actin disrupting drug in a two-component laminar flow stream; type: cell-based, Bovine; settings: for actin cytoskeleton after treatment (phalloidin Alexa 594 stain): about 10 min
Experimental: (§1) Bovine adrenal capillary endothelial (BCE) cells were cultured and harvested as described in D. E. Ingber & J. Folkman, J. Cell Biol., Vol. 109, pp. 317-330, 1989, incorporated herein by reference. In brief, cells were cultured under 10% CO2 on Petri dishes (Falcon) coated with gelatin in DMEM (GIBCO) containing 10% calf serum (CS), 2 mM glutamine, 100 μg/ml streptomycin, 100 μg/ml penicillin, and 1 ng/ml basic fibroblast growth factor (bFGF). Cells were dissociated from culture plates with trypsin/EDTA and washed in DMEM containing 1% wt/vol BSA (BSA/DMEM). These cells were suspended in chemically defined medium (10 μg/ml high density lipoprotein/5 μg/ml transferrin/5 ng/ml bFGF in BSA/DMEM) as described in D. E. Ingber, Proc. Natl. Acad. Sci. USA, Vol. 87, pp. 3579-3583 (1990), incorporated herein by reference, introduced into capillary networks (pretreated with 50 μg/ml fibronectin for 1 hr) from the inlet wells, and incubated in 10% CO2 at 37° C. for 4-6 hr to permit attachment and spreading upon the glass cover slip forming the bottom of the microchannel network. After the above incubation to allow for binding and attachment, non-adherent cells were removed by washing each of the flow channels with media (1% wt/vol. BSA/DMEM) for about 3 min. at a maximum bulk flow velocity of about 0.6 cm/s (Re<1).
Device fabrication and cell culture and attachment of BCE cells was performed as described above in Example 1. Creation and maintenance of flow in the channels and selection and observation of a BCE cell positioned straddling the interface of two components of the flow stream established in the main flow channel was performed in a similar fashion as described previously in Example 1.
In the present example, prior to selective treatment of a portion of a single BCE cell with a membrane-permeable actin disrupting drug, the BCE cells attached to the microfluidic network were uniformly exposed to media containing Mitotracker Green™ FM mitochondrial stain, as described in Example 2, in order to uniformly stain the mitochondria of each of the BCE cells in the microfluidic channels. Subsequent to mitochondrial staining, partial cell treatment with the actin disrupting drug was accomplished by filling right-most well 316 (see FIG. 3A) of the microfluidic channel network with media containing latrunculin A (1 μM in DMEM/10% CS). Similar media, except not including the latrunculin A, was added to inlet wells 312 and 314, and flow was maintained during the experiment as described previously in Example 1. […]

BCE cells = assay: Intracellular gradient formation of a membrane permeable nucleic acid binding dye in a single BCE cell; type: cell-based, Bovine; settings: 60 μM Syto 9 in DMEM/10% CS over one portion of the cell, dye-free media over the other
Experimental: as §1, with “After the above incubation to allow for binding and attachment, non-adherent cells were removed by washing each of the flow channels with media (1% wt/vol. BSA/DMEM) for about 3 min. at a maximum bulk flow velocity of about 0.6 cm/s (Re<1).” left out
The flowing streams and attached BCEs were visualized utilizing a fluorescence inverted microscope, as illustrated in FIG. 3B. […]

Row | Molecule | displacement of mitochondria and nucleus on local actin disruption ([1]; center cell, latrunculin A supplied to right-hand portion only, peripheral cell shape relatively unchanged) | actin cytoskeleton after treatment (phalloidin Alexa 594 stain) ([1]; center cell, only right-hand part exposed to latrunculin A-containing media, 1 μM) | positions of the mitochondria (Mitotracker Green FM stained) ([1]; center cell, right-hand part exposed to 1 μM latrunculin A for 10 min) | actin cytoskeleton after treatment (phalloidin Alexa 594 stain) ([1]; rightmost cell fully exposed to latrunculin A-containing media, 1 μM in DMEM/10% CS) | time until intracellular diffusion reached approximately its steady state value (BCE cells)
1 | C/C1=C/C(=O)O[C@@H]2C[C@@H](CC[C@H](C)/C=C\C=C\CC1)O[C@@](O)([C@@H]1CSC(=O)N1)C2 [latrunculin A] | caused the mitochondria and nucleus to shift towards the left | greatest degree of actin disruption evident in its treated, right side portion | have shifted towards the left-hand (untreated) part of the cell | a substantial portion of the actin cytoskeleton appears, in the rightmost cell, to be depolymerized | 
2 | Syto 9 |  |  |  |  | about 10 minutes
